Results published in ChEMBL document CHEMBL5550161, “Discovery of novel small molecules targeting the USP21/JAK2/STAT3 axis for the treatment of triple-negative breast cancer” (Eur J Med Chem, 2024).
Calls of active or inactive are those of the source. The rule behind the calls is not given here.

How the values were obtained:
[1] = test system: HCC1806; assay: Anti-proliferative activity against human HCC1806 cells assessed as cell growth inhibition incubated for 72 hrs by MTT assay; format: functional, cell-based; conditions: HCC1806, 72 h
[2] = test system: MDA-MB-231; assay: Anti-proliferative activity against human MDA-MB-231 cells assessed as cell survival; format: functional; conditions: dose < 0.4 µM; time 24 hrs
[3] = test system: MDA-MB-231; assay: Inhibition of colony formation in human MDA-MB-231 cells at 0.05 uM measured after 7 days; format: functional, cell-based; conditions: time 7.0 day
[4] = test system: HCC1806; assay: Inhibition of colony formation in human HCC1806 cells at 0.05 uM measured after 7 days; format: functional, cell-based; conditions: time 7.0 day
[5] = test system: MDA-MB-231; assay: Induction of apoptosis in human MDA-MB-231 cells assessed as early apoptotic cells at 0.1 uM incubated for 24 hrs by Annexin V-FITC/PI staining based flow cytometry (reference value: 1.16 %); format: functional
[6] = test system: MDA-MB-231; assay: Induction of apoptosis in human MDA-MB-231 cells assessed as late apoptotic cells at 0.1 uM incubated for 24 hrs by Annexin V-FITC/PI staining based flow cytometry (reference value: 1.23 %); format: functional
[7] = test system: MDA-MB-231; assay: Induction of apoptosis in human MDA-MB-231 cells assessed as viable cells at 0.2 uM incubated for 24 hrs by Annexin V-FITC/PI staining based flow cytometry (reference value: 97.54 %); format: functional; conditions: read-out: Activity
[8] = test system: MDA-MB-231; assay: Induction of apoptosis in human MDA-MB-231 cells assessed as early apoptotic cells at 0.2 uM incubated for 24 hrs by Annexin V-FITC/PI staining based flow cytometry (reference value: 1.16 %); format: functional
[9] = test system: MDA-MB-231; assay: Induction of apoptosis in human MDA-MB-231 cells assessed as late apoptotic cells at 0.2 uM incubated for 24 hrs by Annexin V-FITC/PI staining based flow cytometry (reference value: 1.23 %); format: functional
[10] = test system: MDA-MB-231; assay: Induction of apoptosis in human MDA-MB-231 cells assessed as late apoptotic cells at 0.4 uM incubated for 24 hrs by Annexin V-FITC/PI staining based flow cytometry (reference value: 1.23 %); format: functional
[11] = test system: MDA-MB-231; assay: Induction of apoptosis in human MDA-MB-231 cells assessed as viable cells at 0.8 uM incubated for 24 hrs by Annexin V-FITC/PI staining based flow cytometry (reference value: 97.54 %); format: functional; conditions: read-out: Activity
[12] = test system: MDA-MB-231; assay: Induction of apoptosis in human MDA-MB-231 cells assessed as late apoptotic cells at 0.8 uM incubated for 24 hrs by Annexin V-FITC/PI staining based flow cytometry (reference value: 1.23 %); format: functional
[13] = test system: MDA-MB-231; assay: Induction of apoptosis in human MDA-MB-231 cells assessed as early apoptotic cells at 1.6 uM incubated for 24 hrs by Annexin V-FITC/PI staining based flow cytometry (reference value: 1.16 %); format: functional
[14] = test system: MDA-MB-231; assay: Induction of apoptosis in human MDA-MB-231 cells assessed as necrotic cells at 1.6 uM incubated for 24 hrs by Annexin V-FITC/PI staining based flow cytometry (reference value: 0.07 %); format: functional
[15] = test system: HCC1806; assay: Induction of apoptosis in human HCC1806 cells assessed as viable cells at 0.1 uM incubated for 24 hrs by Annexin V-FITC/PI staining based flow cytometry (reference value: 98.95 %); format: functional; conditions: read-out: Activity
[16] = test system: HCC1806; assay: Induction of apoptosis in human HCC1806 cells assessed as necrotic cells at 0.2 uM incubated for 24 hrs by Annexin V-FITC/PI staining based flow cytometry (reference value: 0.15 %); format: functional
[17] = test system: HCC1806; assay: Induction of apoptosis in human HCC1806 cells assessed as viable cells at 0.4 uM incubated for 24 hrs by Annexin V-FITC/PI staining based flow cytometry (reference value: 98.95 %); format: functional; conditions: read-out: Activity
[18] = test system: HCC1806; assay: Induction of apoptosis in human HCC1806 cells assessed as early apoptotic cells at 0.4 uM incubated for 24 hrs by Annexin V-FITC/PI staining based flow cytometry (reference value: 0.67 %); format: functional
[19] = test system: HCC1806; assay: Induction of apoptosis in human HCC1806 cells assessed as necrotic cells at 0.4 uM incubated for 24 hrs by Annexin V-FITC/PI staining based flow cytometry (reference value: 0.15 %); format: functional
[20] = test system: HCC1806; assay: Induction of apoptosis in human HCC1806 cells assessed as late apoptotic cells at 1.6 uM incubated for 24 hrs by Annexin V-FITC/PI staining based flow cytometry (reference value: 0.23 %); format: functional
[21] = test system: HCC1806; assay: Induction of apoptosis in human HCC1806 cells assessed as necrotic cells at 1.6 uM incubated for 24 hrs by Annexin V-FITC/PI staining based flow cytometry (reference value: 0.15 %); format: functional
[22] = test system: MDA-MB-231; assay: Inhibition of cell migration in human MDA-MB-231 cells; format: functional, cell-based; conditions: dose 0.05-2 µM
[23] = test system: MDA-MB-231; assay: Induction of apoptosis in human MDA-MB-231 cells assessed as decrease in JAK2 level by Western blot analysis; format: functional, cell-based; conditions: dose 0.1-0.4 µM
[24] = test system: MDA-MB-231; assay: Induction of apoptosis in human MDA-MB-231 cells assessed as decrease in STAT3 level by Western blot analysis; format: functional, cell-based; conditions: dose 0.1-0.4 µM
[25] = test system: HCC1806; assay: Induction of apoptosis in human HCC1806 cells assessed as decrease in STAT3 level by Western blot analysis; format: functional, cell-based; conditions: dose 0.1-0.4 µM
[26] = molecular target: Tyrosine-protein kinase JAK2 (Homo sapiens, UniProt O60674); assay: Induction of JAK2 degradation in Carfilzomib-treated human HCC1806 cells at 0.4 uM incubated for 24 hrs by Western blot analysis; format: cell-based
Chain of Tyrosine-protein kinase JAK2 (O60674 whole entry): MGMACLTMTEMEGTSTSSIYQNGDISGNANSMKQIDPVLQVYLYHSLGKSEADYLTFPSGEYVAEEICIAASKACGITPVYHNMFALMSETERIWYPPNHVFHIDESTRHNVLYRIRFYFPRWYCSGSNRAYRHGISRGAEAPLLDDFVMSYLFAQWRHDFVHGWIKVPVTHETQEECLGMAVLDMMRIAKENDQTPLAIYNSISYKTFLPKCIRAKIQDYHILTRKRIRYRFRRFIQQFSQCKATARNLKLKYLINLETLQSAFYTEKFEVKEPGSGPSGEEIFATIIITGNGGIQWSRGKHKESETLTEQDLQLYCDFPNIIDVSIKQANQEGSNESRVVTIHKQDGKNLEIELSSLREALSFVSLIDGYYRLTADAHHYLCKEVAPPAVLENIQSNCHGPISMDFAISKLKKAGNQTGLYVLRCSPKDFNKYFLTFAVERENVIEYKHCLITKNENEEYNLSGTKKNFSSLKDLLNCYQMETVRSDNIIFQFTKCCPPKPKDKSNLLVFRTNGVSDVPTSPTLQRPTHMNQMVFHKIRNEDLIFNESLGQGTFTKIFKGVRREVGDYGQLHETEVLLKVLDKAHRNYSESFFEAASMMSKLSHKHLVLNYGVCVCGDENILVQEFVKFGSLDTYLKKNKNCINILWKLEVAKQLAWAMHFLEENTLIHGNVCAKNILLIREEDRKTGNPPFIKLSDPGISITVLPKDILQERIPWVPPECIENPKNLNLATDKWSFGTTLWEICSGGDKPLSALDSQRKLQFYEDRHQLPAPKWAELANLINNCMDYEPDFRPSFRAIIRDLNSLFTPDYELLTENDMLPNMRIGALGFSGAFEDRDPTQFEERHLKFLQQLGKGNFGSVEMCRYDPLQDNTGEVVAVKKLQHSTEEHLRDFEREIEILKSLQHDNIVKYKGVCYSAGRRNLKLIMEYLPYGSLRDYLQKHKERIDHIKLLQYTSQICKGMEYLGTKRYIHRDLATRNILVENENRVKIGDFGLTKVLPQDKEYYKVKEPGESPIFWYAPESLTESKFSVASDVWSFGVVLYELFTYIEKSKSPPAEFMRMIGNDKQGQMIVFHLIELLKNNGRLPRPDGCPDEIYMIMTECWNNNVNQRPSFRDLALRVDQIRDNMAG

[27] = test system: HCC1806; assay: Downregulation of CUL5 level in human HCC1806 cells at 0.1 to 0.4 uM incubated for 24 hrs by Western blot analysis; format: functional, cell-based; conditions: dose 0.1-0.4 µM
[28] = test system: HCC1806; assay: Downregulation of SOCS3 level in human HCC1806 cells at 0.1 to 0.4 uM incubated for 24 hrs by Western blot analysis; format: functional, cell-based; conditions: dose 0.1-0.4 µM
[29] = test system: HCC1806; assay: Effect on UCHL3 level in human HCC1806 cells at 0.1 to 0.4 uM incubated for 24 hrs by Western blot analysis; format: functional, cell-based; conditions: dose 0.1-0.4 µM
[30] = Toxicity in Balb/c nude mouse assessed as animal mortality at 60 mg/kg, ip bid for 14 days consecutively; format: organism-based; conditions: in vivo, 336 h, time 14 day
[31] = Tmax in Sprague-Dawley rat at 4 mg/kg, ip; format: ADME, organism-based; conditions: in vivo
[32] = Toxicity in Balb/c nude mouse assessed as histopathological change in liver at 60 mg/kg, ip bid for 14 days consecutively; format: organism-based; conditions: in vivo, 336 h, time 14 day
[33] = Toxicity in Balb/c nude mouse assessed as histopathological change in spleen at 60 mg/kg, ip bid for 14 days consecutively; format: organism-based; conditions: in vivo, 336 h, time 14 day
[34] = Toxicity in Balb/c nude mouse assessed as histopathological change in lung at 60 mg/kg, ip bid for 14 days consecutively; format: organism-based; conditions: in vivo, 336 h, time 14 day
[35] = test system: HCC1806; assay: Antitumor activity against human HCC1806 cells xenografted in Balb/c mouse assessed as reduction in tumor weight at 40 to 60 mg/kg, ip bid measured after 14 days; format: functional, organism-based; conditions: dose 40-60 mg/kg, time 14.0 day
[36] = test system: HCC1806; assay: Antitumor activity against human HCC1806 cells xenografted in Balb/c mouse assessed as decrease in STAT3 level at 40 to 60 mg/kg, ip bid measured after 14 days by immunofluorescence based analysis; format: functional, organism-based; conditions: dose 40-60 mg/kg, time 14.0 day
[37] = test system: HCC1806; assay: Synergistic inhibition of cell proliferation in human HCC1806 cells assessed as combination index at 0.35 uM in presence of PTX; format: functional

In the case of `COc1cc(Nc2cc(F)ccc2C(=O)NCCc2c[nH]c3c(F)ccc(F)c23)cc(OC)c1OC`, the IC50 [1] is reported as 250 nM, the Survival [2] is reported as over 80% and the inhibition [3] is reported as “Active”. The inhibition [4] was “Active”, the Activity [5] was 1.66% and the Activity [6] was 1.23%. The viability at 0.2 µM [7] was 96.1%, the Activity [8] was 1.99% and the Activity [9] was 1.69%. It also gave an Activity [10] of 1.83%, a viability at 0.8 µM [11] of 94.6% and an Activity [12] of 2.15%. For the same molecule, the Activity [13] was 7.55%, the Activity [14] was 0.09% and the viability at 0.1 µM [15] was 99%. It also gave an Activity [16] of 0.33%, a viability at 0.4 µM [17] of 96% and an Activity [18] of 2.94%. It also gave an Activity [19] of 0.28%, an Activity [20] of 1.92% and an Activity [21] of 0.35%. For the same molecule, the inhibition [22] was “Active”, the Activity [23] was “Active” and the Activity [24] was “Active”. The Activity [25] was “Active”, the Activity [26] was “Active” and the Activity [27] was “Active”. For the same molecule, the Activity [28] was “Active”, the Activity [29] was “inactive” and the Activity [30] was “Non-Toxic”. For the same molecule, the Tmax [31] was 2.67 h, the Activity [32] was “Non-Toxic” and the Activity [33] was “Non-Toxic”. The Activity [34] was “Non-Toxic”, the Activity [35] was “Active” and the Activity [36] was “Active”. For the same molecule, the CI [37] was under 1.
